Reference: patent US20040024033A1 (priority 1998, published 2004)
Like-named read-outs stand apart in the source and are kept apart here.

Columns and labels:
[1] = Two-week intravenous comparative toxicity study in mice; assay type: in vivo, normal female BALB/c mice
Description: In order to assess the sub-chronic intravenous toxicity of epothilone B, a non-GLP two-week i.v. toxicity study in non-tumor bearing, normal female BALB/c mice is conducted, involving analysis of mortality, clinical signs, body weight, food consumption, hematology, clinical biochemistry, urinalysis, and organ weights as well as macro and microscopic examinations. The study is based on two different dosing regimens of epothilone B of 3 mg/kg and 10 mg/kg, respectively, administered on days 1 and 8 (8 animals per group). Half of the animals are killed on day 15 (main group) and necropsy is performed. For the other half (recovery group) a recovery period of 5 weeks is allowed after administration of the second dose before sacrifice and subsequent necropsy on day 43.

[2] = system: human HCT-15 colon carcinoma; assay type: in vivo, female BALB/c nude mice; conditions: 4 mg/kg, i.v. once on day 14
Description: (§1) Female or male BALB/c nu/nu (nude) mice are kept under sterile conditions (10 to 12 mice per Type III cage) with free access to food and water. Mice weigh between 20 and 25 grams at the time of tumor implantation. Tumors are established by subcutaneous injection of cells (minimum 2×10^6 cells in 100 μl PBS or medium) in carrier mice (4-8 mice per cell line). The resulting tumors are serially passaged for a minimum of three consecutive transplantations prior to start of treatment. Tumor fragments (approx. 25 mg) are implanted s.c. into the left flank of animals with a 13-gauge trocar needle while the mice are exposed to Forene (Abbott, Switzerland) anesthesia.
(§2) Tumor growth and body weights are monitored once or twice weekly. All treatments are administered intravenously (i.v.) and are initiated when a mean tumor volume of approximately 100 to 250 mm^3 is attained, depending upon the tumor type. Tumor volumes are determined using the formula […] (see Cancer Chemother. Pharmacol. 24:148-154, [1989]). Treatments with epothilone B vary the dose and the frequency of administration. Comparator agents are administered according to previously determined optimal treatment regimens. In addition to presenting changes in tumor volumes over the course of treatment, antitumor activity is expressed as T/C% (mean increase of tumor volumes of treated animals divided by the mean increase of tumor volumes of control animals multiplied by 100). Tumor regression (%) represents the smallest mean tumor volume compared to the mean tumor volume at the start of treatment, according to the formula Regression (%)=(1−Vend/Vstart)×100 (Vend=final mean tumor volume, Vstart=mean tumor volume at the start of treatment. Any animals in which the tumor has reached a size exceeding approximately 1.5 to 2.5 cm^3 are sacrificed. Details can be found below.
Tumor fragments of approximately 25 mg are implanted into the left flank of each female nude mouse (n=8 per group). Treatments are started on day 14 after tumor transplantation. Epothilone B is administered once at 4 mg/kg, i.v. on day 14.5-Fluorouracil is administered at 75 mg/kg, i.v., on days 14 and 21. TAXOL® is administered i.v. at 20 mg/kg/day, every second day for 5 treatments (days 14, 16, 18, 20 and 22). Antitumor activity is expressed as T/C% (mean increase of tumor volumes of treated animals divided by the mean increase of tumor volumes of control animals multiplied by 100). Tumor regression (%) represents the final mean tumor volume compares to the mean tumor volume at the start of treatment. Δ Tumor volumes represent the tumor volume on the last treatment day minus the tumor volume on the first treatment day. Statistical analyses on Δ tumor volumes uses Dunnett's test to compare treatment groups to controls. Statistical analyses on body weight changes uses paired t-tests comparing body weights before treatment to those at the end of treatment; mice weigh ˜20-25 g at the start of treatment. Not significant is indicated by the abbreviation ,ns”. Data presented are means±SEM from animals surviving to the end of the experiment.

[3] = system: human KB-8511 epidermoid carcinoma; assay type: in vivo, female BALB/c nude mice
Description: as §1, §2
Tumor fragments of approximately 25 mg are implanted into the left flank of each female nude mouse (n=8 per group). Treatments are started on day 13 after tumor transplantation. epothilone B is administered once at 4 mg/kg, i.v. on day 13, or once per week at 4, 2 or 1 mg/kg, i.v., (on days 13, […] and 27). TAXOL® is administered i.v. at 20 mg/kg/day, every second day for 5 treatments (days 13, 15, 17, 19 and 21). Antitumor activity is expressed as T/C% (mean increase of tumor volumes of treated animals divided by the mean increase of tumor volumes of control animals multiplied by 100). Tumor regression (%) represents the final mean tumor volume compared to the mean tumor volume at the start of treatment. Changes (Δ) in Tumor volumes represent the tumor volume on the last treatment day minus the tumor volume on the first treatment day. Statistical analyses on Δ tumor volumes uses Dunnett's test to compare treatment groups to controls. […]

[4] = system: A549 non-small cell lung tumors; assay type: in vivo, outbred athymic (nu/nu) mice; conditions: for % T/C / Dead/Total: extended observation, day 48
Description: Materials and methods pertaining to the human tumor xenograft model are as previously described.
Measurements are taken for an additional 2 weeks after completion of the regular 3 weeks experiments, to evaluate reversibility of drug-induced body weight loss, and sustainability of antitumor effects.
Treatments are started on day 13 post implantation (10 million cells/animal). Epothilone B is administered i.v. once weekly for 3 weeks (days 13, 20, and 27) at doses of 1, 2, 3, and 3.5 mg/kg. […] Final data are recorded on day 34. A single asterisk (*) indicates p<0.05 using a one-tailed Student's t-Test, and a double asterisk (**) indicates p<0.05 using a Dunnett's or Dunn's test.
Measurements for the experiment described in Table 1 are extended by additional two weeks. Final data are recorded on day 48. A single asterisk (*) indicates p<0.05 using a one-tailed Student's t-Test, and a double asterisk (**) indicates p<0.05 using a Dunneff's or Dunn's test.

[5] = 3 mg/kg i.v. on days 1 and 8, day 15
[6] = 10 mg/kg i.v. on days 1 and 8, day 15
[7] = 1 mg/kg i.v. once weekly for 3 weeks
[8] = 2 mg/kg i.v. once weekly for 3 weeks
[9] = 3 mg/kg i.v. once weekly for 3 weeks
[10] = 3.5 mg/kg i.v. once weekly for 3 weeks

## C/C(=C\c1csc(C)n1)[C@@H]1C[C@@H]2O[C@]2(C)CCC[C@H](C)[C@H](O)[C@@H](C)C(=O)C(C)(C)[C@@H](O)CC(=O)O1 [epothilone B]
[1]; 3 mg/kg i.v. on days 1 and 8
  Mortalities throughout the treatment period (days 1-14): No mortalities
[1]; [5]
  Atrophy of the thymus (microscopic): moderate
  Hematology: leukocytes: reduction in the number of leukocytes
  Sternal bone marrow, microscopic: minimal to slight erythroid and myeloid atrophy
[1]; 3 mg/kg i.v. on days 1 and 8, to day 43
  Survival of the recovery group: all animals of the recovery group survive until the end of the study
[1]; 3 mg/kg i.v. on days 1 and 8, treatment period
  Body weight: body weight loss at the 3 mg/kg dose is only apparent in the second week
[1]; 10 mg/kg i.v. on days 1 and 8
  Mortalities throughout the treatment period (days 1-14): No mortalities
[1]; [6]
  Atrophy of the thymus (microscopic): marked
  Spleen, microscopic: minimal lymphoid atrophy
  Sternal bone marrow, microscopic: minimal to slight myeloid hypoplasia
[1]; 10 mg/kg i.v. on days 1 and 8, day 15, effect more pronounced
  Hematology: leukocytes: reduction in the number of leukocytes
[1]; 10 mg/kg i.v. on days 1 and 8, first and second week
  Body weight: Body weight loss is observed for all animals
[1]; both dose levels (3 and 10 mg/kg), day 15
  Intestinal mucosa (small and large intestine), microscopic: Minimal single cell necrosis
[2]
  % Body Weight Change: 2 ± 2%
  Mortalities due to treatment: No mortalities
  T/C: Regres-
[2]; mean ± SEM
  D Body Weight: 0.4 ± 0.3 g
[3]; 2 mg/kg/week
  mice with undetectable tumors at the end of the experiment: 1/8
[3]; 4 mg/kg, i.v. once per week
  % Body Weight Change: −5±7%
  T/C: Regres-
[3]; 4 mg/kg/week
  mice with undetectable tumors at the end of the experiment: 5/8
[4]; [7]
  % T/C: 72%
  Dead/Total: 0/8
[4]; [8]
  % T/C: 49%
  Dead/Total: 0/8
[4]; [9]
  % T/C: 16%
  Dead/Total: 0/8
[4]; [10]
  % T/C: 12%
  Dead/Total: 0/8
[4]; 3.5 and 3 mg/kg i.v. once weekly, reversible
  body weight loss: approximately 15%
